Test results as given in article doi:10.1101/2021.06.16.448769v1 (bioRxiv, 2021).
Bridge positions count the residues as written; N and C are the ends. Ends that are not written are not given here. Peptide text beside a SMILES is read from it. * marks the point of attachment. Palmitoyl = CCCCCCCCCCCCCCCC(=O)*

Tests used:
human C5 = human C5 (Homo sapiens, UniProt P01031); experiment: SPR multi-cycle kinetics, binding to human C5
[1] = tested on: C5 activation (C5b-6), classical pathway; experiment: Classical pathway; format: biochemical
[2] = tested on: C5 activation (C5b-6), alternative pathway; experiment: Alternative pathway; format: biochemical
rat C5 protein = rat C5 protein (Rattus norvegicus, UniProt P08650); experiment: SPR single-cycle kinetics, binding to rat C5
Chain of rat C5 protein (P08650 19-1681): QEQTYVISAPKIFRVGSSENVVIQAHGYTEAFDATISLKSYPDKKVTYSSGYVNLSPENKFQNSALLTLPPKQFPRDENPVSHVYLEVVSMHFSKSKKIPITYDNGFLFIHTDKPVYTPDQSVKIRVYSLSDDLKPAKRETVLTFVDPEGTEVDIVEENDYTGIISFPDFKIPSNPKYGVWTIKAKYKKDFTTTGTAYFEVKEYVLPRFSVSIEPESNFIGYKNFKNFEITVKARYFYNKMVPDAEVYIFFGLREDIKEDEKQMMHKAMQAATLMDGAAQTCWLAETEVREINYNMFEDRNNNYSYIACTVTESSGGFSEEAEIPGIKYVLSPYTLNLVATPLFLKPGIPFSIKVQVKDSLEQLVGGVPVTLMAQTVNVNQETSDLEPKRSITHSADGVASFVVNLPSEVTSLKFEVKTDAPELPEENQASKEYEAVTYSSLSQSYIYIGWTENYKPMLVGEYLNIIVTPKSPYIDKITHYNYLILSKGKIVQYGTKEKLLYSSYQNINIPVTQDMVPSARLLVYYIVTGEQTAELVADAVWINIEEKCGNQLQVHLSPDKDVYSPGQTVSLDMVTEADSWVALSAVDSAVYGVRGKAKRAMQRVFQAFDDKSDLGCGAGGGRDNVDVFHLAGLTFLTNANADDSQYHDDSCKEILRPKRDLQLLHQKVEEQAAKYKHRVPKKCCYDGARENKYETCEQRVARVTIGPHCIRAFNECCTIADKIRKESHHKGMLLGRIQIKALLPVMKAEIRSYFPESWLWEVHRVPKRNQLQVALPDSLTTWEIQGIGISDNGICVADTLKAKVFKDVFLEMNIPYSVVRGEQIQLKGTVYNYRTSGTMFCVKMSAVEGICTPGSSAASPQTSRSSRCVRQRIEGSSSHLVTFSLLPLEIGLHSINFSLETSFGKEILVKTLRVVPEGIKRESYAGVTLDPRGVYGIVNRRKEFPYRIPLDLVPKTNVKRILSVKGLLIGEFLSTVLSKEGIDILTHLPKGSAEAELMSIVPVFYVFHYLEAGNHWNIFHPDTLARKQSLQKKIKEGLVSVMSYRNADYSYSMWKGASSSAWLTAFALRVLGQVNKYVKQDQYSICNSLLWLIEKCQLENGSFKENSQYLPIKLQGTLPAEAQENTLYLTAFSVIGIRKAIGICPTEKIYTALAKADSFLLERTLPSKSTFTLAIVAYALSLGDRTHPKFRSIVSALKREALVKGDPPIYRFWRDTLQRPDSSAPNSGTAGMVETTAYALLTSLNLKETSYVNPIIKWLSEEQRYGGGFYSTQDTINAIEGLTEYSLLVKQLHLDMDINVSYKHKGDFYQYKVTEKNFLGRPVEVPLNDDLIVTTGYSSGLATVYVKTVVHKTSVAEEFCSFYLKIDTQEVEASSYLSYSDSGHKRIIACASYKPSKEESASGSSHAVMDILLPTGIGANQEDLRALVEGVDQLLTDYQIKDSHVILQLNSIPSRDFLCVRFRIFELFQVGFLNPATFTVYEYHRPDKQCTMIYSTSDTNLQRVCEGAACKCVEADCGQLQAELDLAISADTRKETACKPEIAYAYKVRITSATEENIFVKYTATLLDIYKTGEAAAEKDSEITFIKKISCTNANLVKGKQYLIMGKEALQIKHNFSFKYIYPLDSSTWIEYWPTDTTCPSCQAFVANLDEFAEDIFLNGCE

[3] = Plasma stability, human plasma; format: in vitro ADME; conditions: plasma (lithium heparin)
[4] = Plasma stability, rat plasma; format: in vitro ADME; conditions: plasma (lithium heparin)
[5] = Plasma stability, mouse plasma; format: in vitro ADME; conditions: plasma (lithium heparin)
[6] = Plasma pharmacokinetics after intravenous bolus; format: in vivo, Sprague Dawley rats; conditions: male, Sprague-Dawley, rat
Solubility = format: physicochemical; conditions: reason for lower in vivo dose of 1 mg/kg

Chain of human C5 (P01031 19-673 limits assumed): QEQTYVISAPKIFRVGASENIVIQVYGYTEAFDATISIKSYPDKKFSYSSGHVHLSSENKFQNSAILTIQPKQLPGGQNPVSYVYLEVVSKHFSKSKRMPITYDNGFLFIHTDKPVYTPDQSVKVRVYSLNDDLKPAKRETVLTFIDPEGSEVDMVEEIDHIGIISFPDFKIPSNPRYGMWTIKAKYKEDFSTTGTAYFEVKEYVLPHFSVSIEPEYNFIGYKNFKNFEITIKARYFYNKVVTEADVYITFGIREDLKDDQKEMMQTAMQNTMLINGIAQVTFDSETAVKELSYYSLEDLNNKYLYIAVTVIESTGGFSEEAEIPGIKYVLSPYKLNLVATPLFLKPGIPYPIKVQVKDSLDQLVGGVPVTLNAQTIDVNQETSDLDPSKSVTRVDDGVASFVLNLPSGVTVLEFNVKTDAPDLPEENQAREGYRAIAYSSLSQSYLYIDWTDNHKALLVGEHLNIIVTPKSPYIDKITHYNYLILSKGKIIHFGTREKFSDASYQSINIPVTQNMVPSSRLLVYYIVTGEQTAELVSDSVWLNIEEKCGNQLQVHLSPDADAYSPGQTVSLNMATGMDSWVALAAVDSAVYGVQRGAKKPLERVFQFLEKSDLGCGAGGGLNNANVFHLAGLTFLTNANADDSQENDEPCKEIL
Chain of human C5 (P01031 678-1676 limits assumed): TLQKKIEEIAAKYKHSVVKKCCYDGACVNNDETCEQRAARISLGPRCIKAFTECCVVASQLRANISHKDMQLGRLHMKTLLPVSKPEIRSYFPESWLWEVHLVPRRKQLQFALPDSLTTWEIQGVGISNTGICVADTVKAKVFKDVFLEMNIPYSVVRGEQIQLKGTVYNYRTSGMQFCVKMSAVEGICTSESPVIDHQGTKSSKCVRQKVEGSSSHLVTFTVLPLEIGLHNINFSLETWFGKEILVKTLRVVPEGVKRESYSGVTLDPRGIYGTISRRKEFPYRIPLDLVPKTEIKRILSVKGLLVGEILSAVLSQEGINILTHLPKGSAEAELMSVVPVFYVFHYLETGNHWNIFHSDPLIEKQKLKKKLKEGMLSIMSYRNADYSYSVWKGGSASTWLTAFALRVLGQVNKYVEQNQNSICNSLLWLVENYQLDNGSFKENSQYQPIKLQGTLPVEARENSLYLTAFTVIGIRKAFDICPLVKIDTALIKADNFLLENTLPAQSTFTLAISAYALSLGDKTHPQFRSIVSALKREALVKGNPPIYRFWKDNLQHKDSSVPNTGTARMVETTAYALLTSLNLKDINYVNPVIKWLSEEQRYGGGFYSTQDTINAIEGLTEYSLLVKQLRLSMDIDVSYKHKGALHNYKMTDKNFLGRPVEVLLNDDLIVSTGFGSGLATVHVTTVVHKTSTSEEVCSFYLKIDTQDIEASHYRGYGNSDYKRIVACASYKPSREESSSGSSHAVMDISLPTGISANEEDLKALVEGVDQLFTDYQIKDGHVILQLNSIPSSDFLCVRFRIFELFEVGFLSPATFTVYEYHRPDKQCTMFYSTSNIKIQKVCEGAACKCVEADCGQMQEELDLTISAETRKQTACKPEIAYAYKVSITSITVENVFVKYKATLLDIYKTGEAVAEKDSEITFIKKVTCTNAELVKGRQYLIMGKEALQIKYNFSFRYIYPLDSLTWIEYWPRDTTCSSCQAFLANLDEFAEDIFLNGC

With CC[C@H](C)[C@@H]1NC(=O)[C@H](C)NC(=O)[C@H](C(C)C)NC(=O)CNC(=O)[C@@H]2CSSC[C@@H](C(=O)NCC(=O)N[C@@H](Cc3c[nH]cn3)C(=O)N[C@@H](Cc3ccccc3)C(=O)N[C@@H](CC(C)C)C(=O)N[C@@H](CC(N)=O)C(=O)N[C@@H](CO)C(=O)NCC(=O)N3CCC[C@H]3C(=O)N[C@@H](CC(N)=O)C(=O)N[C@H](C(=O)N[C@@H](CO)C(=O)N3CCC[C@H]3C(=O)N[C@@H](Cc3ccc(O)cc3)C(=O)N[C@H](C(=O)N[C@@H](CO)C(=O)N[C@H](C(=O)O)[C@@H](C)O)C(C)C)[C@@H](C)CC)NC(=O)CNC(=O)[C@H](Cc3c[nH]c4ccccc34)NC(=O)[C@H](CCCNC(=N)N)NC(=O)CNC(=O)[C@H](CSSC[C@H](NC(=O)[C@@H](N)[C@@H](C)O)C(=O)N3CCC[C@H]3C(=O)N[C@@H](CCC(=O)O)C(=O)NCC(=O)N[C@@H](Cc3c[nH]c4ccccc34)C(=O)N[C@@H](CO)C(=O)N[C@@H](CCC(=O)O)C(=O)N2)NC(=O)[C@H](CCC(=O)O)NC(=O)[C@H](Cc2ccc(O)cc2)NC(=O)CNC(=O)[C@H](Cc2ccc(O)cc2)NC1=O [K92chemFE] (H-TCPEGWSECGVAIYGYECGRWGCGHFLNSGPNISPYVST-OH; disulfide 2-18, 9-23; N-terminus assumed) the Kd (human C5; mean KD, SPR multi-cycle kinetics, mean of n=3) was 0.41 nM, the “effect in CP ELISA (in words)” value [1] was “no effect” and the “Alternative pathway ELISA Emax” value ([2]; Figure 6 data, n=3 replicates) was 27%.
With CSCC[C@@H]1NC(=O)[C@@H]2CCCN2C(=O)[C@@H](NC(=O)[C@@H]2CSSC[C@H](NC(=O)[C@@H](N)CO)C(=O)N3CCC[C@H]3C(=O)N[C@@H](CC(=O)O)C(=O)NCC(=O)N[C@@H](Cc3ccccc3)C(=O)N[C@@H](CO)C(=O)N[C@@H](Cc3ccc(O)cc3)C(=O)N[C@@H](CCCNC(=N)N)C(=O)N[C@@H](CO)C(=O)N[C@@H](Cc3c[nH]c4ccccc34)C(=O)N[C@@H](CC(=O)O)C(=O)N[C@@H](CC(=O)O)C(=O)N[C@@H](Cc3ccccc3)C(=O)N2)CSSC[C@@H](C(=O)N[C@@H](CC(C)C)C(=O)N[C@@H](C)C(=O)N2CCC[C@H]2C(=O)N[C@@H](CCCNC(=N)N)C(=O)N[C@@H](CC(N)=O)C(=O)O)NC(=O)[C@H](CCCNC(=N)N)NC(=O)CNC(=O)[C@H](C(C)C)NC1=O [K149chemFE] (H-SCPDGFSYRSWDDFCCPMVGRCLAPRN-OH; disulfide 2-15, 16-22 (inferred); N-terminus assumed) the “binding to C5 (in words)” value (human C5; peptide after reduction and capping of cysteines with iodoacetamide (IAM)) was “entirely abrogated binding”, the “effect in CP ELISA (in words)” value [1] was “non-functional, silent binder of C5” and the “effect in AP ELISA (in words)” value [2] was “non-functional, silent binder of C5”.
With “GCPPGYKSGVDCSPGSECKWGCYAVDGRRYGGYGADSGVGS-OH (disulfide 2-18, 12-22 (inferred)) [K57chemFE]” the “cross reactivity with rat C5 (in words)” value (rat C5 protein) was “specific for human C5”, the remaining at 24 h, 6.25 µg/mL [3] was 76% and the remaining at 24 h, 6.25 µg/mL [4] was 56%. The remaining at 24 h, 6.25 µg/mL [5] was 22%, the clearance ([6]; 10 mg/kg) was 10.6 mL/min/kg and the half-life ([6]; 10 mg/kg) was 17 min.
For “Palmitoyl-GSSSGCPPGYKSGVDCSPGSECKWGCYAVDGRRYGGYGADSGVGS-OH (disulfide 6-22, 16-26 (inferred)) [K57chemFE-palmitoyl]”, the “fold reduction in affinity for C5 relative to parent” value (human C5; SPR, relative to unmodified parent peptide) was “four-fold reduction”, the clearance ([6]; 1 mg/kg) was 0.8 mL/min/kg and the half-life ([6]; 1 mg/kg) was 96 min. The “solubility (in words)” value (Solubility) was “poor solubility”.
